pIC50: −log10 of the molar value.
target: indoleamine 2,3-dioxygenase (IDO) in Hela cells induced by IFN-γ (Homo sapiens (Human), UniProt P14902); assay: IDO Cellular Activity Inhibition Assay (Ehrlich method); assay type: cell-based; details: 24 hours, OD490
Protocol: IDO Cellular Activity Inhibition Assay
The effect of the compounds of the present invention on the activity of indoleamine 2,3-dioxygenase (IDO) in Hela cells induced by IFN-γ was evaluated by the Ehrlich method.
The experimental principle is summarized as follows: IDO expression is low in Hela cells under no induction, but a certain concentration of IFN-γ can induces Hela cells to express IDO which catalyzes the conversion of tryptophan to N-formyl kynurenine, which in turn is hydrolyzed by trichloroacetic acid to give kynurenine. Kynurenine then reacts with the Ehrlich reagent to give a color enabling detection of the IDO activity. The absorbance at 490 nm (OD490) is directly proportional to the IDO activity.
The test compound was dissolved in DMSO (Sigma, Cat. No. D5879) and diluted to 5 mM, then serially diluted 3-fold with DMSO to a minimum concentration of 2.29 μM, and each concentration point was further diluted 50-fold with FBS-free DMEM medium (ThermoFisher, Cat. No. 11995073). If a compound's IC50 value was very low, the initial concentration of the compound was lowered.
Hela cells (ATCC, Cat. No. CCL-2) were cultured in DMEM complete medium containing 10% FBS (GBICO, Cat. No. 10099-141) and 100 U/mL streptomycin mixture (ThermoFisher, Cat. No. 15140122). When covering the culture vessel 80-90%, the cells were digested with 0.25% trypsin (containing EDTA) (ThermoFisher, Cat. No. 25200056) and planted in 96-well plates (Corning, Cat. No. 3599) by 20000 cells per well (80 μL of DMEM medium). The plates were then incubated in a 37° C., 5% CO2 incubator overnight (18-20 hours).
After overnight, 10 μL of DMEM-diluted compound and 10 μL of 500 ng/mL of IFN-γ were added to each well, and gently mixed and the 96-well plates were placed in a 37° C., 5% CO2 incubator for further culturing. After 24 hours, they were removed and centrifuged at room temperature under 2000×g for 5 min, and then the supernatants were transferred to reaction plates (Sigma, Cat. No. CLS3695). One-twentieth of trichloroacetic acid (Sigma, Cat. No. T9159) was added and incubated at 60° C. After 30 min, the reaction plates were centrifuged at room temperature under 2000×g for 5 min. The supernatants were transferred to clean reaction plates, an equal volume of the Ehrlich reagent was added, mixed, and incubated at room temperature. After 15 min, OD490 of each well was measured.
In this experiment, OD490 without IFN-γ but with DMEM medium replacement was referred as OD490100% inhibition. OD490 with IFN-γ and 0.2% DMSO was referred as OD4900% inhibition. The percentage of inhibition on the IDO1 activity in Hela cells by a compound was calculated using the following formula: Inhibition %=100−100*(OD490compound−OD490100% inhibition)/(OD4900% inhibition−OD490100% inhibition)
Where Y is the percentage of inhibition, Bottom is the bottom platform value of the S-curve, Top is the top platform value of the S-curve, X is the logarithm of the concentration of the test compound, and slope factor is the slope coefficient of the curve.

Chain of indoleamine 2,3-dioxygenase (IDO) in Hela cells induced by IFN-γ (P14902 whole entry): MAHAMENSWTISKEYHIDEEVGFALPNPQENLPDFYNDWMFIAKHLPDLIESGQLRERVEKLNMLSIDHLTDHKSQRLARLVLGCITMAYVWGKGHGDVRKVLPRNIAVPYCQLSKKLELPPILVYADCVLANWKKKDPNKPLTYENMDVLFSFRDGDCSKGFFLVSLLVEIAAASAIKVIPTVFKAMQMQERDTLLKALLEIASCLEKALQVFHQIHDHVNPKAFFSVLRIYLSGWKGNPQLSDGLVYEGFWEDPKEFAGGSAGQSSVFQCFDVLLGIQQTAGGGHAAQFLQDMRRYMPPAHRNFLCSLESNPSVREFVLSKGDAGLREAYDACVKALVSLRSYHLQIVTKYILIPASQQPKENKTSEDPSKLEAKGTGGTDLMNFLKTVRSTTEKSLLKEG

With C[C@@H](C(=O)Nc1ccc(S(F)(F)(F)(F)F)cc1)[C@H]1CC[C@@H](c2ccnc3ccc(F)cc32)CC1 [Compound 1, (R)-2-((1s,4S)-4-(6-fluoroquinolin-4-yl)cyclohexyl)-N-(4-(pentafluoro-λ^6-sulfanyl)phenyl)propanamide] as the molecule, how does the pIC50 read?
Its pIC50 is greater than 7.30.

With C[C@@H](C(=O)Nc1ccc(S(F)(F)(F)(F)F)cc1)[C@H]1CC[C@H](c2ccnc3ccc(F)cc32)CC1 [Compound 2, (R)-2-((1r,4R)-4-(6-fluoroquinolin-4-yl)cyclohexyl)-N-(4-(pentafluoro-λ^6-sulfanyl)phenyl)propanamide] as the molecule, how does the pIC50 read?
The pIC50 was 6.00 to 6.70.

With Cc1cc([C@H]2CC[C@@H]([C@@H](C)C(=O)Nc3ccc(S(F)(F)(F)(F)F)cc3)CC2)ccn1 [Compound 3, (R)-2-((1s,4S)-4-(2-methylpyridin-4-yl)cyclohexyl)-N-(4-(pentafluoro-λ^6-sulfanyl)phenyl)propanamide] as the molecule, how does the pIC50 read?
Its pIC50 is greater than 7.30.

With C[C@@H](C(=O)Nc1ccc(S(F)(F)(F)(F)F)cc1)C1CCC(c2ccnc3ccnn23)CC1 (stereo partly drawn) [Compound 4, (R)-N-(4-(pentafluoro-λ^6-sulfanyl)phenyl)-2-(4-(pyrazolo[1,5-a]pyrimidin-7-yl)cyclohexyl)propanamide] as the molecule, how does the pIC50 read?
Its pIC50 is 6.70 to 7.30.

With O=C(CC1(O)CCC(c2ccnc3ccc(F)cc23)CC1)Nc1ccc(S(F)(F)(F)(F)F)cc1 (stereo not drawn) [Compound 5, 2-(4-(6-fluoroquinolin-4-yl)-1-hydroxycyclohexyl)-N-(4-(pentafluoro-λ^6-sulfanyl)phenyl)acetamide] as the molecule, how does the pIC50 read?
Its pIC50 is greater than 7.30.

With C[C@@H](C(=O)Nc1cccc(S(F)(F)(F)(F)F)c1)[C@H]1CC[C@@H](c2ccnc3ccc(F)cc32)CC1 [Compound 8, (R)-2-((1s,4S)-4-(6-fluoroquinolin-4-yl)cyclohexyl)-N-(3-(pentafluoro-λ^6-sulfanyl)phenyl)propanamide] as the molecule, how does the pIC50 read?
The pIC50 was 6.00 to 6.70.

With CC(NC(=O)c1ccc(S(F)(F)(F)(F)F)cc1)[C@H]1CC[C@@H](c2ccnc3ccc(F)cc32)CC1 (stereo partly drawn) [Compound 9, N-(1-((1s,4s)-4-(6-fluoroquinolin-4-yl)cyclohexyl)ethyl)-4-(pentafluoro-λ^6-sulfanyl)benzamide] as the molecule, how does the pIC50 read?
The pIC50 was greater than 7.30.

target: plasma IDO1 (Mus musculus (Mouse), UniProt P28776); assay: not given; details: single dose, nude mice; cited from earlier work
Sequence (P28776 whole entry): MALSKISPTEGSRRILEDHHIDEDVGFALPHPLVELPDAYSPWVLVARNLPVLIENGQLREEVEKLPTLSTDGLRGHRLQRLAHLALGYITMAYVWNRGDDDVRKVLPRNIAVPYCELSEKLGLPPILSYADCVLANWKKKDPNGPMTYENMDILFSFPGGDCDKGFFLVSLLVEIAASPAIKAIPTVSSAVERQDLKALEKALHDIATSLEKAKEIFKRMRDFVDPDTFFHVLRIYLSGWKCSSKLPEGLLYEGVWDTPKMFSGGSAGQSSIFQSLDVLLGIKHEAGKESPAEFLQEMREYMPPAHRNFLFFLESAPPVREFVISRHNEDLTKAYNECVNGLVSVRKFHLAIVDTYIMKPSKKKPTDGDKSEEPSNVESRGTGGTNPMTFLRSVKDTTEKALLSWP

With NS(=O)(=O)NCCNc1nonc1C(=NO)Nc1ccc(F)c(Br)c1 [INCB-024360] as the molecule, how does the “inhibition of the activity of plasma IDO1” value read?
Its value is “effectively inhibit the activity of plasma IDO1 in nude mice at the same level as that in IDO-deficient mice”.

system: CT26 tumors; assay: not given; details: repeated doses; cited from earlier work

For NS(=O)(=O)NCCNc1nonc1C(=NO)Nc1ccc(F)c(Br)c1 [INCB-024360], which “expansion of CT26 tumors” value is on record?
Its value is “prevented the expansion of CT26 tumors”.
